Experimental data from patent publication US20260327260A1, “PHOSPHONOALANINE OLIGOPEPTIDES AND METHODS OF MAKING AND USE THEREOF” (priority 2023, published 2026).

Experiments:
PnaA [1] = assay: PnaA kinetics: conversion of L-Glu and OAA to 2-KG and L-Asp, coupled to SerA/NADH oxidation; assay type: biochemical, Streptomyces sp. NRRL S-515; conditions: role: substrate (L-Glu, 0.5-15 mM); second substrate OAA 5 mM; pH 7.5, 30° C
Procedure: In addition to the transamination of Pn substrates, PnaA was also capable of catalyzing the reversible conversion of Glu and OAA into 2KG and Asp.
(§1) Kinetic analyses. All reactions (400 μL) were performed in 50 mM HEPES, 150 mM NaCl, pH 7.5, 30° C. using an Agilent Cary 300 spectrophotometer. The instrument was first blanked using the reaction containing the enzymes and the fixed substrate (without NADH). Initial rates were calculated from continual changes in absorbance (340 nm) before and after substrate addition. Data were analyzed using SigmaPlot 15.
Conversion of L-Glu and OAA to 2-KG and L-Asp by His6-SUMO-PnaA. Each reaction contained 1 μM PnaA, 5 μM SerA, 200 uM NADH, 5 mM OAA, the 340 nm absorbance change was recorded for 1 min to measure the background assumption of OAA by SerA, and were initiated by the addition of 0.5, 1, 1.5, 2, 3, 4, 6, 10, or 15 mM L-Glu. PnaA was pre-incubated with PLP (1:5) on ice for 10 min prior to use.

threonine synthase = conditions: role: inhibitor; cited from earlier work
PnaA [2] = assay: PnaA kinetics: conversion of L-PnAla and OAA to PnPy and L-Asp, coupled to PnPy reductase VlpB/NADH oxidation; assay type: biochemical, Streptomyces sp. NRRL S-515; conditions: second substrate OAA 5 mM
Procedure: (§2) Next, kinetic analyses were performed to derive insight on the substrate specificity and reaction selectivity of PnaA transamination. Apparent steady state parameters were calculated in spectrophotometric assays by coupling the formation of OAA, PnPy, and 2KG with NADH oxidation in the presence of malate dehydrogenase (MDH), PnPy reductase (VlpB), and 3-phosphoglycerate dehydrogenase (SerA), respectively (FIG. 18A-FIG. 24B). […] The micromolar Km value observed for PnaA with PnPy is similar to that of other PepM coupling enzymes such as PnPy decarboxylase [B27, B30].
as §1
Conversion of L-PnAla and OAA to PnPy and L-Asp by His6-SUMO-PnaA. Each reaction contained 1 μM PnaA, 5 μM VlpB, 200 uM NADH, 5 mM OAA, the 340 nm absorbance change was recorded for 1 min to measure the background assumption of OAA by VlpB. Then the reactions were initiated by the addition of 0.1, 0.2, 0.35, 0.5, 0.65, 0.8, or 1 mM PnAla. PnaA was pre-incubated with PLP (1:5) on ice for 10 min prior to use.

PnaA with PnaD = assay: PnaD-PnaA coupled forward reaction, 31P NMR (PEP to PnAla); assay type: biochemical, Streptomyces sp. NRRL S-515; conditions: role: product, PEP 1.5 mM, 2 hours
Procedure: Biochemical assays of His6-SUMO-PnaA with His6-PnaD. Typical reaction mixtures (300 μL) contained 20 μM His6-PnaD, 20 μM His6-SUMO-PnaA, 1.5 mM PEP, 3 mM L-Asp, 100 μM pyridoxal 5′-phosphate (PLP), and 2 mM MgCl2 in 50 mM HEPES, 150 mM NaCl, pH 7.5. Reactions were incubated at 30° C. for 2 hours, heat inactivated at 65° C. for 10 minutes, and then analyzed by ^31P NMR and LC-MS as described above.
Reactions in timecourse experiments ([…]) contained 10 μM His6-PnaD, 10 μM His6-SUMO-PnaA, 1.5 mM PEP, 10 mM L-Asp, 100 μM pyridoxal 5′-phosphate (PLP), and 2 mM MgCl2 in 50 mM HEPES, 150 mM NaCl, pH 7.5. Samples were where heat inactivated 1, 5, 10, 30, 60, 120, and 240 min after initiation and then analyzed by ^31P NMR as described above.
Reactions examining the effect of amino donor concentrations were the same as above, except they contained 1.5, 3, 5, or 10 mM of (L-Asp). Samples were heat inactivated after 120 min and then analyzed by ^31P NMR as described above.

PnaB = PnaB ligation reactions (31P NMR, LC-HRMS); assay type: biochemical, Streptomyces sp. NRRL S-515; conditions: role: substrate
Procedure: (§3) These hypotheses were tested by overproducing and purifying recombinant PnaB and PnaC from E. coli for use in a series of biochemical assays. PnAla, Ala, and ATP were incubated with PnaB or PnaC and the reactions were monitored by ^31P NMR and LC-HRMS. […] To determine if either enzyme could convert Ala-Val into phosphonoalamide A, protein was removed from the PnaC reaction by ultrafiltration and Ala, ATP, and fresh PnaC or PnaB was added to the filtrate. LC-HRMS identified PnAla-Ala-Val as a product following the addition of PnaB, but not PnaC (FIG. 25A-FIG. 25C).
Biochemical assays of His6-PnaB. Typical reaction mixtures ([…]) contained 10 μM His6-PnaB, 3 mM ATP, 1 mM L-PnAla, 3 mM chemically synthesized L-Ala-L-Val, L-Val-L-Val, L-Ala-L-Ile, or L-Thr-L-Val in 50 mM Tris-HCl, 100 mM NaCl, 2 mM MgCl2 pH 9. Reactions were incubated at 30° C. for 2 hours, heat inactivated at 65° C. for 10 minutes, and then analyzed by NMR and LC-MS as described above.

PnaC = PnaC dipeptide ligation reactions (LC-HRMS); assay type: biochemical, Streptomyces sp. NRRL S-515; conditions: role: substrate
Procedure: as §3
The ATP-Grasp ligases PnaC and PnaB underlie diversification of L-PnAla-containing oligopeptides. To understand the biochemical nature of this potential phosphonopeptide diversity, the substrate specificity of the dipeptide ligase PnaC was first delineated. Microscale biochemical reactions containing purified PnaC were performed with every combination of the 20 canonical amino acids and L-allo-threonine (231 total pairs of substrates). Reactions were analyzed by LC-HRMS to reveal putative dipeptides from 146 out of the 231 combinations. To distinguish residues in reactions containing isomeric pairs (e.g., Ile and Leu, Thr and allo-Thr) new reactions were prepared using ^15N-Ile and 4-^13C-2,3-D2-Thr as substrates. LC-HRMS/MS fragmentation analysis was then performed to verify all products and determine structures.
Biochemical assays of His6-PnaC. Typical reaction mixtures ([…]) contained 10 μM His6-PnaC, […], 3 mM of each L-amino acid, and 5 mM ATP in 50 mM Tris-HCl, 100 mM NaCl, 2 mM MgCl2 pH 9. Reactions were incubated at 30° C. for 16 hours, heat inactivated at 65° C. for 10 minutes, and then analyzed by LC-MS as described above.
Analysis of PnaC and PnaB substrate specificity reactions. An extracted ion chromatogram (EIC) was obtained for each potential product m z. The shape and retention time of each EIC were used to evaluate the quality and plausibility of true signals, and samples with low-confidence EICs were re-analyzed individually, to address the challenges of ion suppression (FIG. 31A-FIG. 31C) and background noise (FIG. 32A-FIG. 32D).

[3] = system: metabotropic glutamate receptors; conditions: cerebral tissues; cited from earlier work
[4] = system: phosphoserine phosphatases; conditions: role: inhibitor; cited from earlier work
MurA = conditions: role: inhibitor; mimics phosphoenolpyruvate; cited from earlier work
bacteria = conditions: cited from earlier work
PnaA [5] = assay: PnaA kinetics: conversion of PnPy and L-Asp to L-PnAla and OAA, coupled to MDH/NADH oxidation (340 nm); assay type: biochemical, Streptomyces sp. NRRL S-515; conditions: role: substrate (PnPy, 0.0025-0.015 mM); second substrate L-Asp 5 mM; pH 7.5, 30° C; apparent steady state
Procedure: as §2, §1
Conversion of PnPy and L-Asp to L-PnAla and OAA by His6-SUMO-PnaA. Each reaction contained 0.5 μM PnaA, 5 μM MDH, 200 uM NADH, 5 mM L-Asp, and were initiated by the addition of 0.0025, 0.00375, 0.005, 0.0065, 0.008, 0.01, or 0.015 mM PnPy. PnaA was pre-incubated with PLP (1:5) on ice for 10 min prior to use.

PnaA [6] = assay: PnaA reverse transamination reaction, 31P NMR/LC-MS (PnAla to PnPy); assay type: biochemical, Streptomyces sp. NRRL S-515; conditions: role: product, 2 hours
Procedure: Biochemical assays of His6-SUMO-PnaA. Typical reaction mixtures (300 μL) contained 20 μM His6-SUMO-PnaA, 1.5 mM L-PnAla, 3 mM oxaloacetate, and 100 μM pyridoxal 5′-phosphate (PLP) in 50 mM HEPES, 150 mM NaCl, pH 7.5. Reactions were incubated at 30° C. for 2 hours, heat inactivated at 65° C. for 10 minutes, and then analyzed by NMR and LC-MS as described above.
Reactions in time course experiments (150 μL) contained 10 μM His6-SUMO-PnaA, 1.5 mM L-PnAla, 10 mM oxaloacetate (OAA), and 100 μM pyridoxal 5′-phosphate (PLP) in 50 mM HEPES, 150 mM NaCl, pH7.5. Samples were where heat inactivated 1, 5, 10, 30, 60, 120, and 240 min after initiation and then analyzed by ^31P NMR as described above.
Reactions examining the effect of keto-acid acceptor concentrations were the same as above, except they contained 1.5, 3, 5, or 10 mM of (OAA). Samples were heat inactivated after 120 min and then analyzed by ^31P NMR as described above.

[7] = system: 1-deoxy-D-xylulose 5-phosphate reductoisomerase; conditions: role: inhibitor; cited from earlier work
malaria = conditions: cited from earlier work
[8] = role: substrate (PnAla), compared with PnPy
[9] = role: substrate (PnAla, 0.1-1 mM), pH 7.5, 30° C, reverse reaction

## N[C@@H](CCC(=O)O)C(=O)O [Glu]
PnaA [1]
  Km: 7500 µM
  kcat: 0.31 s⁻¹

## N[C@@H](/C=C\CP(=O)(O)O)C(=O)O [(Z)-L-2-amino-5-phosphono-3-pentenoic acid]
Threonine synthase
  threonine synthase inhibition: threonine synthase inhibitor

## NC(CP(=O)(O)O)C(=O)O (stereo not drawn) [PnAla, 2-amino-3-phosphonopropionic acid]
PnaA [2]; [8]
  higher Michaelis constant (fold, reverse reaction compared with PnPy reaction): 100 fold
  lower catalytic efficiency (fold, reverse reaction compared with PnPy reaction): 100 fold
PnaA [2]; [9]
  Km: 327 µM
  kcat: 2.4 s⁻¹
PnaA with PnaD; Asp varied 1.5, 3, 5 or 10 mM
  PnAla accumulation at apparent equilibrium: ≥ 70%
PnaA with PnaD; L-Asp 3 mM, PLP 100 μM, 30° C
  yield of PnAla from the PepM-coupled forward reaction: 50%
PnaB; L-PnAla 1 mM, with Ala-Val 3 mM and ATP 3 mM, pH 9, 30° C
  conversion of PnAla into phosphonoalamide A: complete conversion of PnAla into phosphonoalamide A by PnaB
PnaB; with Ala and ATP, up to 16 hrs
  modification of PnAla with Ala: PnAla remained unmodified
PnaC; with Ala and ATP, up to 16 hrs
  modification of PnAla with Ala: PnAla remained unmodified
PnaC; with chemically synthesized Ala-Val and ATP
  conversion of PnAla with Ala-Val: PnAla remained unmodified by PnaC
[3]
  metabotropic glutamate receptor antagonism: selective antagonist of metabotropic glutamate receptors
[4]
  phosphoserine phosphatase inhibition: inhibitor of phosphoserine phosphatases

## C[C@@H]1O[C@@H]1P(=O)(O)O [fosfomycin]
MurA
  MurA inhibition: covalently inhibit MurA

## C[C@H](N)C(=O)N[C@@H](C)C(=O)N[C@@H](CP(=O)(O)O)C(=O)O [phosphonoalamide F, reference compound]
bacteria
  spectrum of antimicrobial activity: differing spectrums of antimicrobial activity

## CC(C)[C@H](NC(=O)[C@H](C)NC(=O)[C@@H](N)CP(=O)(O)O)C(=O)O [phosphonoalamide A]
bacteria
  spectrum of antimicrobial activity: differing spectrums of antimicrobial activity

## O=C(O)C(=O)CP(=O)(O)O [PnPy, 3-phosphonopyruvate]
PnaA [5]
  Km: 4.8 µM
  kcat: 2.3 s⁻¹
PnaA [6]; L-PnAla 1.5 mM, OAA 3 mM, PLP 100 μM, 30° C
  yield of PnPy from the reverse reaction: 48%
PnaA [6]; PnAla 1.5 mM, OAA varied 1.5, 3, 5 or 10 mM
  PnPy accumulation at apparent equilibrium: ≥ 70%

## O=CN(O)CCCP(=O)(O)O [fosmidomycin]
[7]
  inhibition of 1-deoxy-D-xylulose 5-phosphate reductoisomerase: inhibiting 1-deoxy-D-xylulose 5-phosphate reductoisomerase
malaria
  results against malaria in human trials: promising results against malaria in human trials
